Columns and labels:
Details in all cases: 48 h
[1] = tested on: P12-Ichikawa; assay: AUC of viability dose-response curve (% viability x log10 dose units); higher = less sensitive
How it was run: (§1)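 Over 48 h at 37°C, leukemia cells in 1536-well plates (500 or 1000 cells/well), adapted to each medium, received library compounds in DMSO at 11 threefold doses from 47 μM to 0.79 nM. CellTiter-Glo One luminescence, normalised per plate to DMSO and cell-free wells, was fitted by a four-parameter log-logistic function of log10 dose. The area under the curve was then integrated by trapezoidal rule, after scaling curves above full viability and removing those that failed quality control.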

[2] = tested on: NOMO1; assay: as above
How it was run: as §1

[3] = tested on: SEM cells; assay: as above
How it was run: as §1

[4] = tested on: P12-Ichikawa; assay: cell viability relative to DMSO control; higher = less cytotoxic
How it was run: (§2)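 Viability was expressed as a per-plate percentage of DMSO wells, with cell-free wells as background. Leukemia cells (NOMO1 or SEM at 500 cells/well, P12-Ichikawa at 1000 cells/well) were adapted for at least four passages in each medium and seeded in 1536-well plates (5 μl). Library compounds in DMSO were pin-dosed over an 11-point threefold series from 47 μM to 0.79 nM, and CellTiter-Glo One luminescence was read after 48 h at 37°C.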

[5] = tested on: NOMO1; assay: as above
How it was run: as §2

[6] = tested on: SEM cells; assay: as above
How it was run: as §2

CC1(C)C(=O)N(CCN2CCC(C(=O)c3ccc(F)cc3)CC2)c2ccccc21
AUC of viability dose-response curve
Details	[1]	[2]	[3]
HPLM + 10% dialyzed FBS	469	468	471
RPMI 5 mM glucose + 10% FBS	472	465	455
RPMI 5 mM glucose + 10% dialyzed FBS	462	459	471

cell viability [%]
Details	[4]	[5]	[6]
HPLM + 10% dialyzed FBS, 0.000781 µM	112	117	92.5
HPLM + 10% dialyzed FBS, 0.00234 µM	116	115	111
HPLM + 10% dialyzed FBS, 0.00702 µM	117	120	113
HPLM + 10% dialyzed FBS, 0.0211 µM	120	141	111
HPLM + 10% dialyzed FBS, 0.0632 µM	118	151	119
HPLM + 10% dialyzed FBS, 0.19 µM	123	138	119
HPLM + 10% dialyzed FBS, 0.569 µM	126	162	119
HPLM + 10% dialyzed FBS, 1.71 µM	122	128	113
HPLM + 10% dialyzed FBS, 5.12 µM	120	119	103
HPLM + 10% dialyzed FBS, 15.4 µM	120	129	98.7
HPLM + 10% dialyzed FBS, 46.1 µM	113	88.7	101
RPMI 5 mM glucose + 10% FBS, 0.000781 µM	–	120	102
RPMI 5 mM glucose + 10% FBS, 0.00234 µM	–	124	121
RPMI 5 mM glucose + 10% FBS, 0.00702 µM	–	120	115
RPMI 5 mM glucose + 10% FBS, 0.0211 µM	–	131	115
RPMI 5 mM glucose + 10% FBS, 0.0632 µM	–	141	105
RPMI 5 mM glucose + 10% FBS, 0.19 µM	–	142	117
RPMI 5 mM glucose + 10% FBS, 0.569 µM	–	128	115
RPMI 5 mM glucose + 10% FBS, 1.71 µM	–	133	100
RPMI 5 mM glucose + 10% FBS, 5.12 µM	–	117	89.7
RPMI 5 mM glucose + 10% FBS, 15.4 µM	–	122	107
RPMI 5 mM glucose + 10% FBS, 46.1 µM	–	82.1	94.2
RPMI 5 mM glucose + 10% dialyzed FBS, 0.000781 µM	109	116	111
RPMI 5 mM glucose + 10% dialyzed FBS, 0.00234 µM	110	120	109
RPMI 5 mM glucose + 10% dialyzed FBS, 0.00702 µM	118	134	105
RPMI 5 mM glucose + 10% dialyzed FBS, 0.0211 µM	123	136	134
RPMI 5 mM glucose + 10% dialyzed FBS, 0.0632 µM	126	134	116
RPMI 5 mM glucose + 10% dialyzed FBS, 0.19 µM	125	134	115
RPMI 5 mM glucose + 10% dialyzed FBS, 0.569 µM	121	148	117
RPMI 5 mM glucose + 10% dialyzed FBS, 1.71 µM	123	132	124
RPMI 5 mM glucose + 10% dialyzed FBS, 5.12 µM	115	120	111
RPMI 5 mM glucose + 10% dialyzed FBS, 15.4 µM	97.9	113	114
RPMI 5 mM glucose + 10% dialyzed FBS, 46.1 µM	93.5	84.1	101
